Measured values reported in patent publication US7622256B2, “Method for selecting compounds that modulate MIF-induced expression of ICAM-1 and/or VCAM-1” (Avigen, Inc., priority 2006, dated 2009).

Tests used:
[1] = system: rMIF-induced cell surface ICAM-1 expression in PBMCs; experiment: Cell surface ELISA of ICAM-1 expression in stimulated PBMC culture; type: cell-based, Human; conditions: for % change in ICAM-1 expression with ibudilast: normalized to no stimulant levels, n = 2
Method: (§1) In order to determine whether ibudilast antagonized MIF activity, a peripheral blood mononuclear cell (PBMC) culture model was used. Human PBMCs were isolated by Ficoll gradient. Cells were plated in a 96-well tissue culture plate in RPMI medium without serum and incubated overnight to achieve quiescence. They were then treated with 0.1% DMSO (vehicle) or ibudilast at 10 μM, one hour prior to stimulation with recombinant human MIF (0.8, 8, or 80 nM) or LPS (10 ng/mL). 9 hours post-stimulation, the adherent cells were fixed and analyzed for expression of […] adhesion molecule-1 (ICAM-1) and vascular cell adhesion molecule-1 (VCAM-1) via cell surface enzyme linked immunosorbent assay (ELISA).

[2] = system: rMIF-induced cell surface VCAM-1 expression in PBMCs; experiment: Cell surface ELISA of VCAM-1 expression in stimulated PBMC culture; type: cell-based, Human; conditions: for % change in VCAM-1 expression with ibudilast: normalized to no stimulant levels, n = 2
Method: as §1

[3] = 10 μM ibudilast 1 h before stimulant, LPS 10 ng/mL, 9 hours post-stimulation
[4] = 10 μM ibudilast 1 h before stimulant, MIF 0.8 nM, 9 hours post-stimulation
[5] = 10 μM ibudilast 1 h before stimulant, MIF 8 nM, 9 hours post-stimulation
[6] = 10 μM ibudilast 1 h before stimulant, MIF 80 nM, 9 hours post-stimulation
[7] = 10 μM ibudilast, No Stimulant (quiescent cells)
[8] = 10 μM ibudilast, recombinant human MIF stimulation

## CC(C)C(=O)c1c(C(C)C)nn2ccccc12 [ibudilast, 3-isobutyryl-2-isopropylpyrazolo[1,5-a]pyridine]
[1]; [3]
  % change in ICAM-1 expression with ibudilast: 74.5%
[1]; [4]
  % change in ICAM-1 expression with ibudilast: −2.5%
[1]; [5]
  % change in ICAM-1 expression with ibudilast: −0.95%
[1]; [6]
  % change in ICAM-1 expression with ibudilast: −1.3%
[1]; 10 μM ibudilast, LPS 10 ng/mL
  effect on LPS induction of ICAM-1 (in words): not significantly affected
[1]; [7]
  % change in ICAM-1 expression with ibudilast: 30.9%
[1]; [8]
  effect on recombinant MIF-induced expression of ICAM-1 (in words): antagonizes
[2]; [3]
  % change in VCAM-1 expression with ibudilast: −1.5%
[2]; [4]
  % change in VCAM-1 expression with ibudilast: −2.9%
[2]; [5]
  % change in VCAM-1 expression with ibudilast: 4.4%
[2]; [6]
  % change in VCAM-1 expression with ibudilast: 5.4%
[2]; 10 μM ibudilast, LPS 10 ng/mL
  effect on LPS induction of VCAM-1 (in words): not significantly affected
[2]; [7]
  % change in VCAM-1 expression with ibudilast: 95.1%
[2]; [8]
  effect on recombinant MIF-induced expression of VCAM-1 (in words): antagonizes
